Values joined by “and” are separate entries in the source; they are usually repeats but may differ in a detail not shown here. Equal entries are not always repeated.
Experiment: xn = mol fraction of the nth substance listed

COc1ccccc1 + CCOC(=O)OCC
viscosity [mPa·s], 100 kPa
Details | x2 = 0.1064 | x2 = 0.203 | x2 = 0.3032 | x2 = 0.3994 | x2 = 0.499 | x2 = 0.6007 | x2 = 0.7032 | x2 = 0.7988 | x2 = 0.8975
303.15 K | 0.894 | 0.867 | 0.84 | 0.817 | 0.793 | 0.771 | 0.75 | 0.731 | 0.714
308.15 K | 0.824 | 0.801 | 0.778 | 0.759 | 0.738 | 0.719 | 0.702 | 0.687 | 0.673
313.15 K | 0.767 | 0.748 | 0.729 | 0.711 | 0.694 | 0.677 | 0.662 | 0.649 | 0.636

CCCc1ccccc1 + C1CCOC1
303.15 K, 101.33 kPa
Details | viscosity [mPa·s]
x2 = 0.1005 | 0.732
x2 = 0.199 | 0.709
x2 = 0.3031 | 0.682
x2 = 0.4019 | 0.656
x2 = 0.4983 | 0.63
x2 = 0.6024 | 0.596
x2 = 0.7022 | 0.561
x2 = 0.8014 | 0.525
x2 = 0.8964 | 0.485

c1ccc2ccccc2c1 + CO
298.15 K, 101 kPa
Details | viscosity
x1 = 0.006 | 0.5509 mPa·s
x1 = 0.01 | 0.5564 mPa·s and 0.5619 mPa·s
x1 = 0.03 | 0.5893 mPa·s

CCCC[P+](CCCC)(CCCC)CCCC.CS(=O)(=O)[O-] + c1c[nH]cn1
101.33 kPa, x1 = 0.5
Details | viscosity [mPa·s]
313.05 K | 99.81
323.05 K | 61.32

CC(C)=O + CC(C)O
298.15 K, 101 kPa
Details | viscosity [mPa·s]
x2 = 0.152 | 0.347
x2 = 0.161 | 0.349
x2 = 0.292 | 0.389
x2 = 0.302 | 0.395
x2 = 0.452 | 0.486
x2 = 0.486 | 0.507
x2 = 0.488 | 0.513
x2 = 0.661 | 0.703
x2 = 0.812 | 1.071
x2 = 0.849 | 1.187

CC(C)C[P+](C)(CC(C)C)CC(C)C.Cc1ccc(S(=O)(=O)[O-])cc1 + O=S1(=O)CCCC1
Details | viscosity [mPa·s]
323.15 K, 101.33 kPa, x1 = 0.5 | 68.5

COc1ccccc1 + CC(C)(C)O
viscosity [mPa·s], 100.33 kPa
Details | x1 = 0.1 | x1 = 0.1999 | x1 = 0.3002 | x1 = 0.4001 | x1 = 0.5 | x1 = 0.6001 | x1 = 0.6998 | x1 = 0.8001 | x1 = 0.9001
303.15 K | 2.101 | 1.758 | 1.484 | 1.272 | 1.143 | 1.011 | 0.954 | 0.928 | 0.919
313.15 K | 1.585 | 1.29 | 1.099 | 1.002 | 0.915 | 0.853 | 0.825 | 0.808 | 0.798
323.15 K | 1.222 | 1.022 | 0.887 | 0.815 | 0.773 | 0.743 | 0.722 | 0.711 | 0.701

COc1ccccc1 + CC(C)CO
viscosity [mPa·s], 101.33 kPa
Details | x1 = 0.1001 | x1 = 0.2001 | x1 = 0.2999 | x1 = 0.4001 | x1 = 0.5 | x1 = 0.6001 | x1 = 0.7 | x1 = 0.8001 | x1 = 0.9002
303.15 K | 1.789 | 1.326 | 1.157 | 1.069 | 1.011 | 0.969 | 0.951 | 0.934 | 0.921
313.15 K | 1.355 | 1.064 | 0.933 | 0.862 | 0.845 | 0.831 | 0.816 | 0.803 | 0.792
323.15 K | 1.063 | 0.829 | 0.768 | 0.743 | 0.736 | 0.731 | 0.718 | 0.708 | 0.697

Cc1ccccc1 + CCCCCCC
298.15 K, 101 kPa
Details | viscosity [mPa·s]
x2 = 0.4771 | 0.4775
x2 = 0.4859 | 0.476
x2 = 0.4953 | 0.474
x2 = 0.4983 | 0.4735
x2 = 0.4996 | 0.473
x2 = 0.5045 | 0.472
x2 = 0.5106 | 0.471
x2 = 0.5179 | 0.47
x2 = 0.5212 | 0.469
x2 = 0.5328 | 0.467
x2 = 0.5408 | 0.4655
x2 = 0.55 | 0.464
x2 = 0.561 | 0.4615
x2 = 0.579 | 0.458
x2 = 0.603 | 0.4535

C1CCOC1 + CCCCCC
Details | viscosity [mPa·s]
293.15 K, 101 kPa, x1 = 0.1171 | 0.3234
293.15 K, 101 kPa, x1 = 0.23 | 0.3356
293.15 K, 101 kPa, x1 = 0.3386 | 0.349
293.15 K, 101 kPa, x1 = 0.4434 | 0.36
293.15 K, 101 kPa, x1 = 0.5444 | 0.3797
293.15 K, 101 kPa, x1 = 0.6418 | 0.4007
293.15 K, 101 kPa, x1 = 0.736 | 0.4207
293.15 K, 101 kPa, x1 = 0.8269 | 0.442
293.15 K, 101 kPa, x1 = 0.9149 | 0.465
298 K, 101 kPa, x2 = 0.0984 | 0.431
298 K, 101 kPa, x2 = 0.1946 | 0.407
298 K, 101 kPa, x2 = 0.2979 | 0.387
298 K, 101 kPa, x2 = 0.3518 | 0.374
298 K, 101 kPa, x2 = 0.4012 | 0.365
298 K, 101 kPa, x2 = 0.4477 | 0.357
298 K, 101 kPa, x2 = 0.4775 | 0.352
298 K, 101 kPa, x2 = 0.5496 | 0.342
298 K, 101 kPa, x2 = 0.6159 | 0.333
298 K, 101 kPa, x2 = 0.6436 | 0.33
298 K, 101 kPa, x2 = 0.7063 | 0.323
298 K, 101 kPa, x2 = 0.7549 | 0.318
298 K, 101 kPa, x2 = 0.7901 | 0.314
298 K, 101 kPa, x2 = 0.9039 | 0.303
298.15 K, 101 kPa, x1 = 0.1171 | 0.3025
298.15 K, 101 kPa, x1 = 0.23 | 0.3142
298.15 K, 101 kPa, x1 = 0.3386 | 0.3258
298.15 K, 101 kPa, x1 = 0.4434 | 0.3381
298.15 K, 101 kPa, x1 = 0.5444 | 0.357
298.15 K, 101 kPa, x1 = 0.6418 | 0.3736
298.15 K, 101 kPa, x1 = 0.736 | 0.3943
298.15 K, 101 kPa, x1 = 0.8269 | 0.415
298.15 K, 101 kPa, x1 = 0.9149 | 0.4365
303.15 K, 101.33 kPa, x1 = 0.0971 | 0.285
303.15 K, 101.33 kPa, x1 = 0.1966 | 0.295
303.15 K, 101.33 kPa, x1 = 0.3001 | 0.307
303.15 K, 101.33 kPa, x1 = 0.4 | 0.32
303.15 K, 101.33 kPa, x1 = 0.5034 | 0.334
303.15 K, 101.33 kPa, x1 = 0.5974 | 0.349
303.15 K, 101.33 kPa, x1 = 0.7066 | 0.369
303.15 K, 101.33 kPa, x1 = 0.7889 | 0.386
303.15 K, 101.33 kPa, x1 = 0.8992 | 0.41

CC1COC(=O)O1 (stereo not drawn) + C1CCOC1
viscosity [mPa·s]
Details | 298.15 K | 308.15 K | 318.15 K
101 kPa, x2 = 0.2 | 1.7 | – | –
101 kPa, x2 = 0.6 | 0.862 | – | –
101.33 kPa, x2 = 0.0524 | 2.227 | 1.858 | 1.589
101.33 kPa, x2 = 0.1036 | 2.023 | 1.709 | 1.459
101.33 kPa, x2 = 0.1429 | 1.87 | 1.598 | 1.373
101.33 kPa, x2 = 0.2064 | 1.674 | 1.432 | 1.239
101.33 kPa, x2 = 0.2431 | 1.567 | 1.351 | 1.167
101.33 kPa, x2 = 0.3083 | 1.393 | 1.208 | 1.057
101.33 kPa, x2 = 0.3478 | 1.303 | 1.133 | 0.992
101.33 kPa, x2 = 0.4095 | 1.171 | 1.025 | –
101.33 kPa, x2 = 0.5098 | – | 0.8753 | 0.7782
101.33 kPa, x2 = 0.5621 | – | 0.8044 | 0.7222
101.33 kPa, x2 = 0.6094 | 0.8417 | 0.7503 | 0.6719
101.33 kPa, x2 = 0.6479 | 0.7836 | 0.7016 | 0.6343
101.33 kPa, x2 = 0.7082 | 0.7171 | 0.6445 | 0.5827
101.33 kPa, x2 = 0.7635 | 0.6549 | 0.596 | –
101.33 kPa, x2 = 0.8062 | 0.6195 | – | 0.5098
101.33 kPa, x2 = 0.8388 | 0.5831 | 0.5361 | 0.4805
101.33 kPa, x2 = 0.9035 | 0.5357 | 0.4872 | 0.4425
101.33 kPa, x2 = 0.9631 | 0.485 | 0.4449 | 0.404

From the CheMixHub viscosity set
